Laboratory results reported in patent publication US20110212891A1 (MSD K.K., priority 2008, published 2011).

Target: T1, Human DGAT1 (Homo sapiens, UniProt O75907)
T1 construct: made in house; host or cells: Pichia pastoris (printed 'Pichia pastris'), vector pPICZA; the membrane fraction served as enzyme source
T1 sequence (O75907 1-488): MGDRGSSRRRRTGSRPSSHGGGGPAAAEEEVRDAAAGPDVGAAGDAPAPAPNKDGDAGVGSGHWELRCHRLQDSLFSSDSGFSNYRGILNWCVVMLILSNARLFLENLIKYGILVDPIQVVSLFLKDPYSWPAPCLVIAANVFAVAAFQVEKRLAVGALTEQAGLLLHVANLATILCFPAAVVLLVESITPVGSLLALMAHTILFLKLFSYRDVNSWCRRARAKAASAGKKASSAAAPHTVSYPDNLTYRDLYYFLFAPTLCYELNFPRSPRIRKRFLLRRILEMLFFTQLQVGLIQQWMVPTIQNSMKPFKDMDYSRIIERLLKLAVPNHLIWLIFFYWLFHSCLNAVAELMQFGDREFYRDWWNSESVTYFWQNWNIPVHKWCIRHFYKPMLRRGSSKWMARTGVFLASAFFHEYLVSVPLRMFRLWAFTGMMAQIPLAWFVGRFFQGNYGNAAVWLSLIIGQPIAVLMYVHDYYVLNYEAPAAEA
Assay: DGAT1 Inhibitory Activity Test ([14C]-oleoyl-CoA, DGAT1-expressed yeast membrane fraction)
Assay type: biochemical
Details: Table 5, room temperature, 30 minutes
Description: Human DGAT1 genes were amplified by PCR using primers described below from human cDNA library (Clontech).
The amplified human DGAT1 genes were introduced into a yeast expression vector pPICZA (Invitrogen). The resultant expression plasmid was introduced into a yeast (Pichia pastris) by electroporation to produce a recombinant yeast. The recombination yeast was cultured in the presence of 0,5% methanol for 72 hours, and the cells were crushed using glass beads in 10 mM Tris pH 7.5, 250 mM sucrose and 1 mM EDTA, followed by adjusting the membrane fraction by centrifugation to use the adjusted membrane fraction as an enzyme source.
To the reaction liquid having the following composition: 100 mM Tris pH 7.5, 100 mM MgCl2, 100 mM sucrose, 40 μM dioelin, 15 μm [^14C]-oleoyl-CoA, 0.25 μg of test substance, DGAT1-expressed yeast membrane fraction, was added, and the mixture having a volume of 100 μl was incubated at room temperature for 30 minutes. To the reaction liquid, 100 μl of 2-propanol/heptan/H2O (80:20:2) was added, the mixture was stirred well, followed by adding 200 μl of heptane and further stirring the mixture. After centrifugation, the heptane layer was collected, ethanol/0.1N NaOH/H2O (50:5:45) was added, the mixture was thus stirred, followed by recentrifuging the mixture and collecting the heptane layer. After exsiccation of the obtained heptane layer, 100 μl of Microscint 0 (PerkinElmer) was added, and the radioactivity was measured with a liquid scintillation counter. The inhibitory activity was calculated from the following formula:
Inhibition rate=100−(radioactivity in case of addition of test compound−background)/(radioactivity in case of addition of no test compound−background)×100
wherein the background means the radioactivity in case of addition of no membrane fraction.

Compound	IC50 [nM]
O=C1C(NC(=O)C2(NC(=O)C3(C(F)(F)F)CC3)CC2)CCc2cc(OC(F)(F)F)ccc2N1Cc1cc(C(F)(F)F)cc(C(F)(F)F)c1 (single isomer, unassigned) [Example 41 Enantiomer A, N-[1-({[1-[3,5-bis(trifluoromethyl)benzyl]-2-oxo-7-(trifluoromethoxy)-2,3,4,5-tetrahydro-1H-1-benzazepin-3-yl]amino}carbonyl)cyclopropyl]-1-(trifluoromethyl)cyclopropane carboxyamide]	137
CC(C)(C)OC(=O)NC1(C(=O)NC2CCc3ccccc3N(Cc3ccc(OC(F)(F)F)cc3)C2=O)CCCC1 (single isomer, unassigned) [Example 47 Enantiomer B]	21
O=C(NC1(C(=O)N[C@@H]2CC(=O)c3ccccc3N(Cc3cc(C(F)(F)F)cc(C(F)(F)F)c3)C2=O)CC1)c1ccc(F)c(F)n1 [Example 8]	85
CC(C)(C)OC(=O)NC1(C(=O)N[C@H]2CC(=O)c3ccccc3N(Cc3ccc(-c4ccccc4)cc3)C2=O)CC1 [Example 21]	24
CC(C)(C)OC(=O)NC1(C(=O)NC2CCc3ccccc3N(Cc3ccc(OC(F)(F)F)cc3)C2=O)CCCC1 (single isomer, unassigned) [Example 47 Enantiomer A]	153
CC(C)(C)OC(=O)NC1(C(=O)NC2CCc3ccccc3N(Cc3ccc(OC(F)(F)F)cc3)C2=O)CCC1 (single isomer, unassigned) [Example 46 Enantiomer B, tert-butyl{1-[({2-oxo-1-[4-(trifluoromethoxy)benzyl]-2,3,4,5-tetrahydro-1H-1-benzazepin-3-yl}amino)carbonyl]cyclobutyl}carbamate]	14
O=C1C(NC(=O)C2(NC(=O)C3(C(F)(F)F)CC3)CC2)CCc2cc(OC(F)(F)F)ccc2N1Cc1cc(C(F)(F)F)cc(C(F)(F)F)c1 (single isomer, unassigned) [Example 41 Enantiomer B, N-[1-({[1-[3,5-bis(trifluoromethyl)benzyl]-2-oxo-7-(trifluoromethoxy)-2,3,4,5-tetrahydro-1H-1-benzazepin-3-yl]amino}carbonyl)cyclopropyl]-1-(trifluoromethyl)cyclopropane carboxyamide]	858
CC(C)(C)OC(=O)NC1(C(=O)NC2CCc3ccccc3N(Cc3ccc(OC(F)(F)F)cc3)C2=O)CCC1 (single isomer, unassigned) [Example 46 Enantiomer A, tert-butyl{1-[({2-oxo-1-[4-(trifluoromethoxy)benzyl]-2,3,4,5-tetrahydro-1H-1-benzazepin-3-yl}amino)carbonyl]cyclobutyl}carbamate]	189

Same assay, conditions: Table 6, room temperature, 30 minutes

Compound	IC50 [nM]
CC(C)(C)OC(=O)NC1(C(=O)N[C@@H]2CC(=O)c3ccccc3N(Cc3cc(C(F)(F)F)cc(C(F)(F)F)c3)C2=O)CCC1 [Example 51, tert-butyl{1-[({(3R)-1-[3,5-bis(trifluoromethyl)benzyl]-2,5-dioxo-2,3,4,5-tetrahydro-1H-1-benzazepin-3-yl}amino)carbonyl]cyclobutyl}carbamate]	41
O=C(NC1(C(=O)N[C@@H]2CC(=O)c3ccccc3N(Cc3cc(C(F)(F)F)cc(C(F)(F)F)c3)C2=O)CC1)c1nccs1 [Example 50, N-{1-[({(3R)-1-[3,5-bis(trifluoromethyl)benzyl]-2,5-dioxo-2,3,4,5-tetrahydro-1H-1-benzazepin-3-yl}amino)carbonyl}cyclopropyl}-1,3-thiazole-2-carboxamide]	65
O=C(NC1(C(=O)N[C@@H]2CC(=O)c3ccccc3N(Cc3cc(C(F)(F)F)cc(C(F)(F)F)c3)C2=O)CCC1)c1nccs1 [Example 52, N-{1-[({(3R)-1-[3,5-bis(trifluoromethyl)benzyl]-2,5-dioxo-2,3,4,5-tetrahydro-1H-1-benzazepin-3-yl}amino)carbonyl]cyclobutyl}-1,3-thiazole-2-carboxamide]	253
O=C(NC1(C(=O)N[C@@H]2CC(=O)c3ccccc3N(Cc3cc(C(F)(F)F)cc(C(F)(F)F)c3)C2=O)CCC1)c1ccc(F)cc1 [Example 53, N-{1-[({(3R)-1-[3,5-bis(trifluoromethyl)benzyl]-2,5-dioxo-2,3,4,5-tetrahydro-1H-1-benzazepin-3-yl}amino)carbonyl]cyclobutyl}-4-fluorobenzamide]	77
